pIC50: −log10 of the molar value. Blank lines part the entries; values can stand above or below the compound they belong to.
What was measured:
[1] = biological target: Sodium channel protein type 10 subunit alpha (Mus musculus, UniProt Q6QIY3); test: Inhibition of mouse recombinant Nav 1.8 channel expressed in HEK293 cells by isotopic efflux assay; format: cell-based
[2] = biological target: Sodium channel protein type 3 subunit alpha (Homo sapiens) (UniProt Q9NY46); test: Inhibition of human Nav1.3 channel at 1 uM
[3] = biological target: T1, Nav1.5 (sodium channel protein type 5 subunit alpha) (Homo sapiens, UniProt Q14524); test: Inhibition of human Nav1.5 channel at 1 uM; details: human
T1 sequence (Q14524 whole entry): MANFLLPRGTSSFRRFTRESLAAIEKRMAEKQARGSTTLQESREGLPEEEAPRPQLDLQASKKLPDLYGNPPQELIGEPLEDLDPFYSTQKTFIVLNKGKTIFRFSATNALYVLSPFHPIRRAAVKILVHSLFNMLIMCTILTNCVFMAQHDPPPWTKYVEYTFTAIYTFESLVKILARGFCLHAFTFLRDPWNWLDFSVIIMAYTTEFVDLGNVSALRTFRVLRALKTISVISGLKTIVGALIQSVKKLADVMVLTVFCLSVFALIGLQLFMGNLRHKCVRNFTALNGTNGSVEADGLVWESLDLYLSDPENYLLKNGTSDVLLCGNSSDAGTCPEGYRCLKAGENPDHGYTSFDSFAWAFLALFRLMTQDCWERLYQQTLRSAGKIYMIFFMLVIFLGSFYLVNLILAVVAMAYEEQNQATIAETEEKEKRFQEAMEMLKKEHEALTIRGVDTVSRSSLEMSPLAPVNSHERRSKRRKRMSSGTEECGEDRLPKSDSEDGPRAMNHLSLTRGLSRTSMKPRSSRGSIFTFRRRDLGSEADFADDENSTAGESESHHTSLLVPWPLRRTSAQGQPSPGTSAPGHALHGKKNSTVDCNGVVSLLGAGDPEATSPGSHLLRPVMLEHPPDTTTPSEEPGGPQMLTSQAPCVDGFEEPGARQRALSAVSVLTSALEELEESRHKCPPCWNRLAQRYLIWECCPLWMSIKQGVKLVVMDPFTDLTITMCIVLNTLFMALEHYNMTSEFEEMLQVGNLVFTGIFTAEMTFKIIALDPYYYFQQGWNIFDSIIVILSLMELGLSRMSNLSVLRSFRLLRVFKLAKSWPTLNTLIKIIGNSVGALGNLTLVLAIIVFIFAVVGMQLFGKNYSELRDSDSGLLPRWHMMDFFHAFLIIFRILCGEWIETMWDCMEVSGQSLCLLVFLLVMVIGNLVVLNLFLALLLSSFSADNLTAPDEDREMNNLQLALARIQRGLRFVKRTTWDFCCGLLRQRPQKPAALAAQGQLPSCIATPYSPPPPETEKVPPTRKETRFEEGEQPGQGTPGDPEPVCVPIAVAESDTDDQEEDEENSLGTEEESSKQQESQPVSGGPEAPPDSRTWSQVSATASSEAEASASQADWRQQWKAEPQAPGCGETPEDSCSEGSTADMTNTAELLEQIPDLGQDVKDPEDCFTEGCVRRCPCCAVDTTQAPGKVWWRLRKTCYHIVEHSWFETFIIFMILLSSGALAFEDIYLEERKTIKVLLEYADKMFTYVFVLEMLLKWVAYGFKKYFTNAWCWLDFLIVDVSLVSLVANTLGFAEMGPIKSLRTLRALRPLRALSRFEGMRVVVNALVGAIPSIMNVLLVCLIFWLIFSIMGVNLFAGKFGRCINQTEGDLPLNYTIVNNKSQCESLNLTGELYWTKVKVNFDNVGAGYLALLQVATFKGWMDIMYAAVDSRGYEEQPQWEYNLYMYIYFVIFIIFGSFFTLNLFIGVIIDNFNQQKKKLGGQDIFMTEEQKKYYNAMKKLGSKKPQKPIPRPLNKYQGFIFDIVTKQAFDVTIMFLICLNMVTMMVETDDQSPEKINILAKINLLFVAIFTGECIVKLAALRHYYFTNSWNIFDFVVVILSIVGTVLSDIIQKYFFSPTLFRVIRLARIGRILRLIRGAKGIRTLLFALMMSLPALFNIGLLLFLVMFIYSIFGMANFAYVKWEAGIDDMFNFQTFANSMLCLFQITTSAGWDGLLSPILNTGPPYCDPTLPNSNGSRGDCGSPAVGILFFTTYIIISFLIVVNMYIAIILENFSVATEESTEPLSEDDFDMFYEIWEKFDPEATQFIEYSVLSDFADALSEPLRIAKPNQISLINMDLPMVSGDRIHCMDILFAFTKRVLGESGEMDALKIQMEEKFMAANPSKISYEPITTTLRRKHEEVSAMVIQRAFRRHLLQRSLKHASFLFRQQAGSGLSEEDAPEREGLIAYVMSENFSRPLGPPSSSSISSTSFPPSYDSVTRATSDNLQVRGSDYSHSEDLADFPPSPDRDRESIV

[4] = biological target: Sodium channel protein type 2 subunit alpha (Homo sapiens) (UniProt Q99250); test: Inhibition of human Nav1.2 channel at 1 uM
[5] = biological target: T2, Sodium channel protein type 10 subunit alpha (Homo sapiens, UniProt Q9Y5Y9); test: Activity at human recombinant Nav 1.8 channel expressed in HEK293 cells in resting state with prepulse voltage of -100 mV assessed as blockade of TTx-resistant sodium current at 1 uM; format: cell-based
T2 sequence (Q9Y5Y9 whole entry, looked up): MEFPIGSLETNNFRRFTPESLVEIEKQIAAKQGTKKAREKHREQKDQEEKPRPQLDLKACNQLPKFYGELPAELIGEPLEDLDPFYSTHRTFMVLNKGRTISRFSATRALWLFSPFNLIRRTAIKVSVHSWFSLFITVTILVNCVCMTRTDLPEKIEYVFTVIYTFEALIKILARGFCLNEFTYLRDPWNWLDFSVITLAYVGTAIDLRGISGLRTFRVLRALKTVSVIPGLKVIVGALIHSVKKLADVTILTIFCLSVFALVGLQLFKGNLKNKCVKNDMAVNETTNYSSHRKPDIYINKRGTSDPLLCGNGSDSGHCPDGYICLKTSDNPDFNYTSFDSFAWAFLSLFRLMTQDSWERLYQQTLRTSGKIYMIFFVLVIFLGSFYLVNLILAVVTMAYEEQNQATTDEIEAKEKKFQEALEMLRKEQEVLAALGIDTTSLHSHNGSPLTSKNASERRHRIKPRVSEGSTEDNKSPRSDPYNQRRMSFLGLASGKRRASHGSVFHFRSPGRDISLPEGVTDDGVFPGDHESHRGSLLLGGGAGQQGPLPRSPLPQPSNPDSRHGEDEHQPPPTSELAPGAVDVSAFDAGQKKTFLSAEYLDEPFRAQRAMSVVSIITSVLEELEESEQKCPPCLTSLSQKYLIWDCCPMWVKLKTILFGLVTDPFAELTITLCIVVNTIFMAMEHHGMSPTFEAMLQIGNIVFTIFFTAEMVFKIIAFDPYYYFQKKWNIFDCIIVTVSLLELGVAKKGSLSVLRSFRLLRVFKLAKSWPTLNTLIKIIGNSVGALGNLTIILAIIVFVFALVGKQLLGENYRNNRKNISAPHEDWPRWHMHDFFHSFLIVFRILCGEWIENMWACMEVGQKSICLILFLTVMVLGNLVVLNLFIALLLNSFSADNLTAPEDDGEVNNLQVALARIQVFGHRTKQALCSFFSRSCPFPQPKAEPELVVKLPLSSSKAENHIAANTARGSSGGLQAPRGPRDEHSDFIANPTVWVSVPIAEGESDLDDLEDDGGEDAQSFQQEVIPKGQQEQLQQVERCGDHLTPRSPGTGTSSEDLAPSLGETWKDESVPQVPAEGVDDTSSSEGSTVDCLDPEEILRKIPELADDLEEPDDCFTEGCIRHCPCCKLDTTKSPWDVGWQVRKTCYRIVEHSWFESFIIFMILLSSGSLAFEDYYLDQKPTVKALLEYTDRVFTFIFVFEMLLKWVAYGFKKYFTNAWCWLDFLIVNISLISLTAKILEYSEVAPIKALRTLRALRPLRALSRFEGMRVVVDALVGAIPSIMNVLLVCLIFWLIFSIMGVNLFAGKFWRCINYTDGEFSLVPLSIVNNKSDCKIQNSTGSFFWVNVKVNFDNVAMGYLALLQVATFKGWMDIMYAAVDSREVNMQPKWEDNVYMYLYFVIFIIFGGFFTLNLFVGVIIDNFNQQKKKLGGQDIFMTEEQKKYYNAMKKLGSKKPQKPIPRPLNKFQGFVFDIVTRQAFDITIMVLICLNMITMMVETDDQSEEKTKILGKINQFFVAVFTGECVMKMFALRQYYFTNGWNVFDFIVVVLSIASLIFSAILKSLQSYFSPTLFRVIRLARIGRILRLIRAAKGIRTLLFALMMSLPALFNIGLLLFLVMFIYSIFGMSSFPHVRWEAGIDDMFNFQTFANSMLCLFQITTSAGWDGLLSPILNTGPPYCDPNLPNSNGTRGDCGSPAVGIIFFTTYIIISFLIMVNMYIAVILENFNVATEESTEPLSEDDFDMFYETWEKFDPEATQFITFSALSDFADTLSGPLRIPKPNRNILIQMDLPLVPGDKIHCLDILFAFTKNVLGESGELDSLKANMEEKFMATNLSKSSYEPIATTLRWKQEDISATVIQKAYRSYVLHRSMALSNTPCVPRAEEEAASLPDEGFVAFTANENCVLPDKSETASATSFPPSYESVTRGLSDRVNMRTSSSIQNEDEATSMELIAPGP

[6] = biological target: T2, Sodium channel protein type 10 subunit alpha; test: Inhibition of human recombinant Nav 1.8 channel expressed in HEK293 cells at 1 uM; format: cell-based
[7] = Activity at rat dorsal root ganglion in inactivated state with prepulse voltage of -40 mV assessed as blockade of TTx-resistant sodium current at 1 uM by whole-cell patch clamp technique; format: functional
[8] = biological target: T2, Sodium channel protein type 10 subunit alpha; test: Inhibition of human recombinant Nav 1.8 channel expressed in HEK293 cells at 3 uM; format: cell-based
[9] = Activity at rat dorsal root ganglion in resting state with prepulse voltage of -100 mV assessed as blockade of TTx-resistant sodium current at 10 uM by whole-cell patch clamp technique; format: functional
[10] = biological target: T2, Sodium channel protein type 10 subunit alpha; test: Activity at human recombinant Nav 1.8 channel expressed in HEK293 cells in inactivated state with prepulse voltage of -40 mV assessed as blockade of TTx-resistant sodium current at 3 uM; format: cell-based
[11] = Activity at rat dorsal root ganglion in inactivated state with prepulse voltage of -40 mV assessed as blockade of TTx-resistant sodium current at 10 uM by whole-cell patch clamp technique; format: functional
[12] = biological target: T2, Sodium channel protein type 10 subunit alpha; test: Activity at human recombinant Nav 1.8 channel expressed in HEK293 cells in resting state with prepulse voltage of -100 mV assessed as blockade of TTx-resistant sodium current at 3 uM; format: cell-based
[13] = biological target: Voltage-gated inwardly rectifying potassium channel KCNH2 (Homo sapiens, UniProt Q12809); test: Inhibition of hERG potassium channel expressed in CHO cells by isotope efflux assay
Chain of Voltage-gated inwardly rectifying potassium channel KCNH2 (Q12809 whole entry): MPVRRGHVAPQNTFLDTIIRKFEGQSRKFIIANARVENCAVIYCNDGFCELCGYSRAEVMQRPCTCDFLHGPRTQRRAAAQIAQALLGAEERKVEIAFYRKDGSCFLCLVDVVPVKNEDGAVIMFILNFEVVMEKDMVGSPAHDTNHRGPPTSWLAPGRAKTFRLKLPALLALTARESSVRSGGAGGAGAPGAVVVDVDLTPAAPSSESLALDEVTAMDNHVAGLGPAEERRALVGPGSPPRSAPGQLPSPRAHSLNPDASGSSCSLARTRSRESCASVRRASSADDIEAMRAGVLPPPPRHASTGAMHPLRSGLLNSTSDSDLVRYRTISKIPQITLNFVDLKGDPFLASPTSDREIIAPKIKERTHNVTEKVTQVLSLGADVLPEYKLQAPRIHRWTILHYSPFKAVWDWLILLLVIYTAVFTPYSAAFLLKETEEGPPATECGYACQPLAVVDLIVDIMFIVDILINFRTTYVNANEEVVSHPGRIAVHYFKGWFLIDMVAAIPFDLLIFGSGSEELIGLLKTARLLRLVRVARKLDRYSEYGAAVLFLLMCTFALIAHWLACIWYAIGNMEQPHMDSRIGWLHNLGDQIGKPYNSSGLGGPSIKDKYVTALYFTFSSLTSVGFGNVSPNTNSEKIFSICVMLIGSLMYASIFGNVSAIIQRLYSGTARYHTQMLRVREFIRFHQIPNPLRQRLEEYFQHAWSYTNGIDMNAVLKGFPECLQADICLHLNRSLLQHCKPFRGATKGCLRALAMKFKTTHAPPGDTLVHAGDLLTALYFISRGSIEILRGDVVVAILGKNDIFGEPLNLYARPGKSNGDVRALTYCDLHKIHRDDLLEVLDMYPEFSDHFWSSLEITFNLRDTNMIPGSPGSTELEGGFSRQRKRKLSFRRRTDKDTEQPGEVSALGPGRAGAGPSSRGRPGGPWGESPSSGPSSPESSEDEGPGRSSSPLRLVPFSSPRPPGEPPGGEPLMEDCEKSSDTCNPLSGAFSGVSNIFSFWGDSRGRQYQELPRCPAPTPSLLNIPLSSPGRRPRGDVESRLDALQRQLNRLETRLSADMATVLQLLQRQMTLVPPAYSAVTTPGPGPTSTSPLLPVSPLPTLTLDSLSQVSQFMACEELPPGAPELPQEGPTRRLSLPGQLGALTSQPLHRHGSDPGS

[14] = Activity at rat dorsal root ganglion in resting state with prepulse voltage of -100 mV assessed as blockade of TTx-resistant sodium current at 1 uM by whole-cell patch clamp technique; format: functional
[15] = biological target: T2, Sodium channel protein type 10 subunit alpha; test: Activity at human recombinant Nav 1.8 channel expressed in HEK293 cells in inactivated state with prepulse voltage of -40 mV assessed as blockade of TTx-resistant sodium current at 1 uM; format: cell-based
[16] = biological target: Sodium channel protein type 9 subunit alpha (Homo sapiens) (UniProt Q15858); test: Inhibition of human Nav1.7 channel at 3 uM
[17] = biological target: T2, Sodium channel protein type 10 subunit alpha; test: Inhibition of human recombinant Nav 1.8 channel expressed in HEK293 cells at 0.03 uM; format: cell-based
[18] = biological target: Sodium channel protein type 2 subunit alpha (Homo sapiens) (UniProt Q99250); test: Inhibition of human Nav1.2 channel at 3 uM
[19] = Activity at rat dorsal root ganglion in inactivated state with prepulse voltage of -40 mV assessed as blockade of TTx-resistant sodium current at 0.003 uM by whole-cell patch clamp technique; format: functional
[20] = biological target: Sodium channel protein type 3 subunit alpha (Homo sapiens) (UniProt Q9NY46); test: Inhibition of human Nav1.3 channel at 3 uM
[21] = Activity at rat dorsal root ganglion in resting state with prepulse voltage of -100 mV assessed as blockade of TTx-resistant sodium current at 0.3 uM by whole-cell patch clamp technique; format: functional
[22] = Activity at rat dorsal root ganglion in inactivated state with prepulse voltage of -40 mV assessed as blockade of TTx-resistant sodium current at 0.03 uM by whole-cell patch clamp technique; format: functional
[23] = Activity at rat dorsal root ganglion in resting state with prepulse voltage of -100 mV assessed as blockade of TTx-resistant sodium current at 0.003 uM by whole-cell patch clamp technique; format: functional
[24] = biological target: T2, Sodium channel protein type 10 subunit alpha; test: Activity at human recombinant Nav 1.8 channel expressed in HEK293 cells in resting state with prepulse voltage of -100 mV assessed as blockade of TTx-resistant sodium current at 0.03 uM; format: cell-based
[25] = biological target: T2, Sodium channel protein type 10 subunit alpha; test: Activity at human recombinant Nav 1.8 channel expressed in HEK293 cells in resting state with prepulse voltage of -100 mV assessed as blockade of TTx-resistant sodium current at 0.3 uM; format: cell-based
[26] = biological target: T1, Nav1.5 (sodium channel protein type 5 subunit alpha); test: Inhibition of human Nav1.5 channel at 3 uM
[27] = biological target: T2, Sodium channel protein type 10 subunit alpha; test: Activity at human recombinant Nav 1.8 channel expressed in HEK293 cells in inactivated state with prepulse voltage of -40 mV assessed as blockade of TTx-resistant sodium current at 0.3 uM; format: cell-based
[28] = biological target: T2, Sodium channel protein type 10 subunit alpha; test: Inhibition of human recombinant Nav 1.8 channel expressed in HEK293 cells at 0.3 uM; format: cell-based
[29] = biological target: T2, Sodium channel protein type 10 subunit alpha; test: Activity at human recombinant Nav 1.8 channel expressed in HEK293 cells in inactivated state with prepulse voltage of -40 mV assessed as blockade of TTx-resistant sodium current at 0.03 uM; format: cell-based
[30] = Activity at rat dorsal root ganglion in inactivated state with prepulse voltage of -40 mV assessed as blockade of TTx-resistant sodium current at 0.3 uM by whole-cell patch clamp technique; format: functional
[31] = biological target: T2, Sodium channel protein type 10 subunit alpha; test: Inhibition of human recombinant Nav 1.8 channel expressed in HEK293 cells at 0.1 uM; format: cell-based
[32] = biological target: T2, Sodium channel protein type 10 subunit alpha; test: Activity at human recombinant Nav 1.8 channel expressed in HEK293 cells in inactivated state with prepulse voltage of -40 mV assessed as blockade of TTx-resistant sodium current at 0.1 uM; format: cell-based
[33] = Activity at rat dorsal root ganglion in inactivated state with prepulse voltage of -40 mV assessed as blockade of TTx-resistant sodium current at 0.1 uM by whole-cell patch clamp technique; format: functional
[34] = Aqueous solubility of the compound; format: physicochemical
[35] = biological target: T2, Sodium channel protein type 10 subunit alpha; test: Activity at human recombinant Nav 1.8 channel expressed in HEK293 cells in resting state with prepulse voltage of -100 mV assessed as blockade of TTx-resistant sodium current at 0.1 uM; format: cell-based
[36] = Activity at rat dorsal root ganglion in resting state with prepulse voltage of -100 mV assessed as blockade of TTx-resistant sodium current at 0.1 uM by whole-cell patch clamp technique; format: functional
[37] = biological target: Sodium channel protein type 2 subunit alpha (Homo sapiens) (UniProt Q99250); test: Inhibition of human Nav1.2 channel at 0.1 uM
[38] = biological target: T2, Sodium channel protein type 10 subunit alpha; test: Inhibition of human recombinant Nav 1.8 channel expressed in HEK293 cells at 0.003 uM; format: cell-based
[39] = biological target: T2, Sodium channel protein type 10 subunit alpha; test: Activity at human recombinant Nav 1.8 channel expressed in HEK293 cells in resting state with prepulse voltage of -100 mV assessed as blockade of TTx-resistant sodium current at 0.001 uM; format: cell-based
[40] = biological target: T2, Sodium channel protein type 10 subunit alpha; test: Activity at human recombinant Nav 1.8 channel expressed in HEK293 cells in inactivated state with prepulse voltage of -40 mV assessed as blockade of TTx-resistant sodium current at 0.001 uM; format: cell-based
[41] = biological target: T1, Nav1.5 (sodium channel protein type 5 subunit alpha); test: Inhibition of human Nav1.5 channel at 0.1 uM
[42] = biological target: T2, Sodium channel protein type 10 subunit alpha; test: Activity at human recombinant Nav 1.8 channel expressed in HEK293 cells in inactivated state with prepulse voltage of -40 mV assessed as blockade of TTx-resistant sodium current at 0.003 uM; format: cell-based
[43] = biological target: T2, Sodium channel protein type 10 subunit alpha; test: Activity at human recombinant Nav 1.8 channel expressed in HEK293 cells in resting state with prepulse voltage of -100 mV assessed as blockade of TTx-resistant sodium current at 0.003 uM; format: cell-based

Structure (SMILES): Cc1ccccc1CNC(=O)c1ccc(-c2ccc(Cl)cc2)o1
pIC50 [1]: 5.96

Structure (SMILES): Cc1ccnc(NC(=O)c2ccc(-c3ccc(Cl)cc3)o2)c1
inhibition [2]: 5% | inhibition at 1 µM [3]: 24% | inhibition [4]: 12% | inhibition [5]: 58% | inhibition [6]: 42% | inhibition at 1 µM [7]: 36% | inhibition [8]: 81% | inhibition at 10 µM [9]: 88% | inhibition [10]: 81% | inhibition at 10 µM [11]: 88% | inhibition [12]: 83% | pIC50 [1]: 6.02 | pIC50 [13]: < 4.52 | inhibition at 1 µM [14]: 9% | inhibition [15]: 42%

Structure (SMILES): Cc1cccc(NC(=O)c2ccc(-c3cccc(C(F)(F)F)c3)o2)c1
pIC50 [1]: 5.12

Structure (SMILES): CN(C)C1CCN(C(=O)c2ccc(-c3ccc(Cl)cc3)o2)CC1
pIC50 [1]: 5.28

Structure (SMILES): CCOc1ccc(-c2ccc(C(=O)Nc3cccc(C)c3)o2)cc1
pIC50 [1]: 6.37

Structure (SMILES): Cc1cccc(NC(=O)c2ccc(-c3ccc(OC(F)(F)F)cc3)o2)c1
inhibition at 0.3 µM [30]: 63% | inhibition [37]: 47% | inhibition [38]: 73% | inhibition at 1 µM [3]: 87% | inhibition [4]: 84% | inhibition at 0.1 µM [33]: 40% | inhibition [39]: 7% | inhibition [40]: 40% | inhibition at 0.1 µM [41]: 52% | inhibition [42]: 73% | inhibition at 0.3 µM [21]: 30% | inhibition [43]: 33% | pIC50 [1]: 6.54 | inhibition at 0.1 µM [36]: 25% | pIC50 [13]: < 4.52

Second part, led by results:

inhibition [16]: 44% | inhibition [17]: 55% | inhibition [18]: 38% | inhibition [20]: 37% | inhibition [24]: 27% | pIC50 [1]: 5.54 | inhibition [25]: 66% | inhibition [27]: 70% | inhibition [28]: 70% | inhibition [29]: 56%
Structure (SMILES): CN1CCCc2cc(NC(=O)c3ccc(-c4ccc(Cl)cc4)o3)ccc21
inhibition at 0.003 µM [19]: 44% | inhibition at 0.3 µM [21]: 28% | inhibition at 0.03 µM [22]: 79% | inhibition at 0.003 µM [23]: 31% | pIC50 [13]: 5.28 | inhibition at 3 µM [26]: 71%

pIC50 [1]: 6.01
Structure (SMILES): CN1CCOc2cc(NC(=O)c3ccc(-c4ccc(Cl)cc4)o3)ccc21

pIC50 [1]: 5.34
Structure (SMILES): O=C(Nc1cccc(N2CCOCC2)c1)c1ccc(-c2ccc(Cl)cc2)o1

pIC50 [1]: 5.51
Structure (SMILES): O=C(Nc1ccc2cc[nH]c2c1)c1ccc(-c2ccc(Cl)cc2)o1

pIC50 [1]: 5.60
Structure (SMILES): Cc1cc(NC(=O)c2ccc(-c3ccc(Cl)cc3)o2)ccn1

inhibition [16]: 41% | inhibition [17]: 68% | inhibition [18]: 54% | inhibition [2]: 17% | inhibition [31]: 77% | inhibition [32]: 77% | inhibition [4]: 33% | inhibition [20]: 61% | solubility [34]: < 0.1 µg/mL | inhibition [35]: 67% | inhibition [24]: 61% | pIC50 [1]: 6.32 | inhibition [29]: 68%
Structure (SMILES): Cc1cccc(NC(=O)c2ccc(-c3ccc(Cl)cc3)o2)c1
inhibition at 0.3 µM [30]: 60% | inhibition at 0.1 µM [33]: 37% | inhibition at 0.3 µM [21]: 18% | inhibition at 0.1 µM [36]: 3% | pIC50 [13]: 4.57 | inhibition at 3 µM [26]: 51%
